According to US12428428B2, “Tricyclic tetrahydroisoquinoline derivative, preparation method therefor and application thereof in medicine” (JIANGSU HENGRUI MEDICINE CO., LTD., priority 2020, dated 2025):

Legend:
Format in all cases: cell-based
ER (estrogen receptor) = ER (estrogen receptor) (Homo sapiens (Human), UniProt P03372); assay: Inhibition of binding of E to ER (MCF-7/ERE-luciferase reporter cells); conditions: MCF-7/ERE-luciferase cells, 0.1 nM estradiol, 24 h
Procedure: The compounds of the present disclosure can inhibit the binding of E (estrogen) to ER (estrogen receptor), thereby blocking the binding of the complex of E and ER to ERE (estrogen response element), and consequently the expression of downstream luciferase proteins. The inhibitory effects of the compounds of the present disclosure on the binding of E to ER was tested by using the following method.
An ERE was cloned upstream of the luciferase gene, and MCF-7/ERE-luciferase monoclonal cells were selected by transfection of MCF-7 (TCHu74, National Collection of Authenticated Cell Cultures). The MCF-7/ERE-luciferase cells were seeded into a 96-well plate with an MEM (hyclone, SH30024.01B) medium containing 10% charcoal stripped FBS (Moregate, FBSF), 1% sodium pyruvate (sigma, S8636), 1% non-essential amino acids (sigma, M7145) and 500 μg/mL G418 at a density of 30,000 cells/well and cultured at 37° C. with 5% CO2. 20 mM stock solutions of the drugs are prepared, serially diluted 10-fold with 100% DMSO, and then diluted 20-fold with the medium. After the cells were cultured for 24 h, the medium was removed. 0.1 nM estradiol (sigma, E2758) and 10 μL of a medium-diluted drug were added to each well, and DMSO was added to the control group. The mixtures were well mixed by gentle shaking. The cells were cultured in an incubator at 37° C. with 5% CO2 for 24 h, and then the cell culture liquid was removed, followed by the addition of 50 μL of a luciferase substrate (Promega, E6110) to each well. The plate was let stand at room temperature in the dark for 10-15 min, and the chemiluminescence signal values were determined.
The inhibitory effects of the compounds of the present disclosure on the binding of E to ER were tested through the above experiment. The chemiluminescence signal value was plotted against the compound concentration (in log form) using Graphpad Prism, and the IC50 values of the compounds were obtained.

MCF-7 cells = assay: Inhibition of proliferation of MCF-7 cells (ATP method, Cell Titer-Glo); conditions: for IC50: Homo sapiens, MCF7, MCF-7 cells, 72 h; for inhibitory effects on the proliferation of MCF-7 cells (in words): conclusion
Procedure: This experiment was intended to test the inhibitory effects of the compounds disclosed herein on the proliferation of MCF-7 Cells by using the ATP method, and to evaluate the in vitro activity of the compounds according to the IC50 values.
MCF-7 cells (TCHu74, National Collection of Authenticated Cell Cultures) were seeded into a 96-well plate with an MEM (hyclone, SH30024.01B) medium containing 10% FBS (Gibco, 10099-141), 1% sodium pyruvate (sigma, 58636) and 1% non-essential amino acid (sigma, M7145) at a density of 4,000 cells/well and cultured at 37° C. with 5% CO2. 20 mM stock solutions of the compounds are prepared, serially diluted with 100% DMSO to a final concentration of 1000×, and then diluted 20-fold with a medium containing 2% FBS. After the cells were cultured for 24 h, the medium was removed. 90 μL of the medium containing 2% FBS and 10 μL of a drug were added to each well, and 10 μL of DMSO was added to the control group. The mixtures were well mixed by gentle shaking. The blank group contained only 100 μL of the medium containing 2% FBS. The cells were cultured in an incubator at 37° C. with 5% CO2 for 72 h, and then 50 μL of mixed Cell Titer-Glo (Promega, G7571) was added to each well. The mixtures were well mixed by shaking and let stand at room temperature for 10 min, and the chemiluminescence signal values were determined.
The chemiluminescence signal value was plotted against the compound concentration (in log form) using Graphpad Prism, and the IC50 values of the compounds were obtained.

ERα = ERα (Homo sapiens (Human), UniProt P03372); assay: Degradation of ERα in MCF-7 cells (ELISA); conditions: for DC50: MCF-7 cells, 16 to 18 h, read-out: EC50 (nM), degradation of ERα; for degradation of ERα (in words): conclusion
Procedure: ERα-positive breast cancer cell line MCF-7 cells were cultured in a DMEM/F12 medium (HyClone, SH30023.01) containing 10% fetal bovine serum (Corning, 35-010-CV). […] The following day the compounds were serially diluted with DMSO and further diluted with the phenol red-free DMEM/F12 medium containing 5% charcoal-stripped fetal bovine serum. 20 μL of a diluted compound was added to each well of the 48-well plate at final concentrations of 3000, 300, 30, 3, 0.3, 0.03 and 0.003 nM. The 48-well plate was placed in the incubator for 16 to 18 h. A 96-well plate was coated with the capture antibody from the human ERα/NR3A1 total protein assay kit (R&D, DYC5715-5). […] The plate was placed in an incubator at 26° C. overnight. On day 3, the antibody-coated 96-well plate was washed once with PBS, and 200 μL of PBS containing 1% BSA was added to each well. The plate was incubated in an incubator at 37° C. for 1.5 h to be blocked. The cell culture medium supernatant was discarded. The cells were washed once with PBS, and 60 μL of a cell lysis buffer was added to each well. […] The cells were lysed on ice for 15 min, and 300 μL of PBS containing 1 mM EDTA and 0.5% TritonX-100 was added to each well to dilute the urea to 1 M. The blocking buffer in the blocked 96-well plate was discarded, and 100 μL of diluted cell lysis buffer was added to each well. The plate was incubated in an incubator at 37° C. for 2 h and washed 5 times with PBS. A biotinylated assay antibody was diluted to 0.4 μg/mL with PBS containing 1% BSA, and then 100 μL of the assay antibody was added to each well. The plate was incubated in an incubator at 37° C. for 1 h. The plate was then washed five more times, and 100 μL of avidin-HRP diluted 200-fold with PBS containing 1% BSA was added to each well. The plate was incubated at 37° C. for 30 min. The plate was washed five more times, and 100 μL of TMB substrate was added to each well. The plate was incubated at room temperature until blue color appeared, and 100 μL of stop solution was added to each well. OD450 signal values were read using a PHERAstar multi-mode microplate reader. The IC50 values for the inhibitory activity of the compounds were calculated using Graphpad Prism software.

ERα, sequence (P03372 whole entry): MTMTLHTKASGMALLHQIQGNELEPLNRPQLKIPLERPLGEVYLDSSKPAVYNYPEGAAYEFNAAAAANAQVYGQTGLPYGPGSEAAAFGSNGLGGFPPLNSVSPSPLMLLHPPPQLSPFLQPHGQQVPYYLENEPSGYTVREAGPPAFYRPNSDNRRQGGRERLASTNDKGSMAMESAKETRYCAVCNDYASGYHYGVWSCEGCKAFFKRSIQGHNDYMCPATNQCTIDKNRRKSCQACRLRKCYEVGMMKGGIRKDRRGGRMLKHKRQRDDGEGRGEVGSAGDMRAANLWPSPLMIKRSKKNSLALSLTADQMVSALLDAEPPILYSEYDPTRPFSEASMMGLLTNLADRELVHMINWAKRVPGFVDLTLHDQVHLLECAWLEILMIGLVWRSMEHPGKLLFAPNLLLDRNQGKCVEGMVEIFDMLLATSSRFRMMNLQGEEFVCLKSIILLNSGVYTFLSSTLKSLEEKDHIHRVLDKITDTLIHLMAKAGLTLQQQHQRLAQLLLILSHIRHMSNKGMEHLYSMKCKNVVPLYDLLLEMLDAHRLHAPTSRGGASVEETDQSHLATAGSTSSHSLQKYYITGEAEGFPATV
ER (estrogen receptor), sequence (P03372 whole entry): as above

## C[C@@H]1Cc2cc3c(cc2[C@@H](c2ccc(NC4CN(CCCF)C4)cc2)N1CC(F)(F)F)OCO3 [Example 16, 1-(3-Fluoropropyl)-N-(4-((5R,7R)-7-methyl-6-(2,2,2-trifluoroethyl)-5,6,7,8-tetrahydro-[1,3]dioxolo[4,5-g]isoquinolin-5-yl)phenyl)azetidin-3-amine]
ER (estrogen receptor)
  IC50: 0.27 nM

## C[C@@H]1Cc2ccc3c(c2[C@@H](c2ccc(NC4CN(CCCF)C4)cn2)N1CC(F)(F)CO)C(=O)NC3=O [Example 20, (7R,9S)-8-(2,2-difluoro-3-hydroxypropyl)-9-(5-((1-(3-fluoropropyl)azetidin-3-yl)amino)pyridin-2-yl)-7-methyl-6,7,8,9-tetrahydro-1H-pyrrolo[3,4-h]isoquinoline-1,3(2H)-dione, reference compound]
MCF-7 cells
  IC50: > 10000 nM
  inhibitory effects on the proliferation of MCF-7 cells (in words): no activity
ERα
  DC50: > 10000 nM
  degradation of ERα (in words): no activity

## C[C@@H]1Cc2ccc3c(=O)[nH][nH]c(=O)c3c2[C@@H](c2ccc(NC3CN(CCCF)C3)cn2)N1CC(F)(F)CO [Example 21, reference compound]
MCF-7 cells
  IC50: > 10000 nM
  inhibitory effects on the proliferation of MCF-7 cells (in words): no activity
ERα
  DC50: > 10000 nM
  degradation of ERα (in words): no activity
